Experiment: passive permeability, PAMPA, ADME assay (AID 1508612)
Conditions: pH 7.4, 30.0 min, 50.0 µM

Papp [×10⁻⁶ cm/s] | Compound
721 | Cc1cc(Nc2nc(-c3ccncc3)nc3ccccc23)n[nH]1
406 | N#Cc1ccc(-c2csc(N3CCC(C(N)=O)CC3)n2)cc1
< 1 | O=C(NCC1Cn2cccc2CN1Cc1cccnc1)Nc1ccccc1 (stereo not given)
74.9 | Cc1ccc2[nH]c(-c3ccccc3)cc(=O)c2c1
< 1 | COc1ccc(S(=O)(=O)N2CCCCCC2)cc1NC(=O)Cc1n[nH]c(=O)c2ccccc12
23.4 | Cc1ccc(S(=O)(=O)Nc2cc(Cl)ccc2C(=O)Nc2nc(-c3ccccc3)cs2)cc1
587 | CCCCC1CCC(C(=O)Nc2ccc(S(=O)(=O)Nc3nccs3)cc2)CC1 (stereo not given)
156 | CC(=O)c1ccc(N2CCN(c3ccc(NC(=O)c4ccc(F)cc4)cc3C(=O)O)CC2)cc1
> 1000 | Cc1ccc(-c2cc(C(=O)NC3CCCCC3)c3ccccc3n2)cc1
371 | O=C1CCCC2=C1C(c1ncccc1Br)N=C(Nc1nc3ccccc3o1)N2 (stereo not given)
16.8 | Fc1cc(Nc2nc(-c3ccncc3)nc3ccccc23)ccc1-c1cccc(C(F)(F)F)c1
10.6 | O=S(=O)(Nc1nccs1)c1ccc(Nc2nc(-c3ccc(F)cc3)cs2)cc1
255 | CCOP(=O)(Cc1ccc(C(=O)Nc2ccc(Br)cc2C#N)cc1)OCC
181 | CC(C)(C)c1ccc(C(=O)Nc2ccc3c(c2)CCCN3C(=O)c2cccs2)cc1
253 | CCN(CC)S(=O)(=O)c1ccc(N2CCCC2)c(NS(=O)(=O)c2ccc(C)cc2)c1
< 1 | C[C@@H](O)CNC(C)(C)CC(=O)N[C@@H]1CCc2ccccc2N(Cc2ccc(-c3ccccc3-c3nn[nH]n3)cc2)C1=O

Papp [×10⁻⁶ cm/s] | Compound
< 1 | Cc1ccc(C(=O)Nc2nc3nc(C)cc(=O)n3[nH]2)cc1
17.7 | CCOC(=O)c1ccc(N2C(=O)c3[nH]nc(-c4ccc(OC)cc4)c3C2c2ccc(C)cc2)cc1 (stereo not given)
598 | NC(=O)C1CCN(c2nc(-c3ccccc3)cs2)CC1
664 | Oc1ccc(Nc2nc(-c3ccncc3)nc3ccccc23)cc1F
900 | C=Cc1ccc(Cn2c(C(=O)O)c(CNCc3ccccc3)c3ccc(OC)cc32)cc1
> 1000 | Cn1c(CN2CCCC2)nc2cc(NC(=O)COc3ccc(Cl)cc3)ccc21
974 | O=C(O)c1ccc(O)c2ncc(N3CCCN(CCc4cccc5ccccc45)CC3)cc12
298 | CC[C@H](NC(=O)c1c(O)c(-c2ccccc2)nc2ccccc12)c1ccccc1
> 1000 | O=c1cc(CSc2ccc(Cl)cc2)nc(-c2ccccn2)[nH]1
46.2 | Cc1cc(NS(=O)(=O)c2ccc(C(=O)NCc3ccc(Cl)c(Cl)c3)cc2)no1
646 | COc1ccc(-c2csc(N3CCC(C(N)=O)CC3)n2)cc1
> 1000 | Fc1ccc(Cl)cc1-c1nc(Nc2ccncc2)c2nccnc2n1
258 | Cc1onc(-c2ccc(F)cc2)c1COc1ccc(C(=O)N2CCS(=O)(=O)CC2)cn1
18.5 | C[C@]1(CO)CN(c2cc(C(=O)Nc3ccc4c(c3)-c3c(c(C(N)=O)nn3-c3ccc(F)cc3)CC4)c(Cl)cn2)C[C@@]1(C)CO
> 1000 | COc1ccccc1N1CCN(CCN(C(=O)c2ccc(I)cc2)c2ccccn2)CC1

More lines, now with the values behind:

Compound | Papp [×10⁻⁶ cm/s]
Cc1cn2c(-c3cn[nH]c3)cnc2c(Nc2ccc(C(=O)N3CCNCC3)cc2F)n1 | < 1
COc1c(O)cc2c(c1OC)-c1ccc(SC)c(=O)cc1C(NC(C)=O)CC2 (stereo not given) | 19.5
Nc1c(C(=O)Nc2ccc(Cl)c(C(F)(F)F)c2)sc2nc3c(cc12)N1CCC3CC1 | > 1000
COc1ccc(C(=O)NC2CCN(c3cnn(CC4CC4)c(=O)c3)CC2)c(OC)n1 | 550
NC(=O)C1CCN(c2nc(-c3ccc4c(c3)OCO4)cs2)CC1 | 740
CC(C)CCNC(=O)[C@H](CC(C)C)NC(=O)[C@H]1O[C@@H]1C(=O)O | < 1
C[C@@H]1CC(=O)Nc2cccc(-c3cnn(C(C)(C)C)c3)c2N1 | 56.5
COC1C(OC(=O)c2ccc(C)[nH]2)C(O)C(Oc2ccc3c(O)c(NC(=O)c4ccc(O)c(CC=C(C)C)c4)c(=O)oc3c2Cl)OC1(C)C (stereo not given) | 7.04
CC(=O)NCCNC[C@@H]1C=C(C)[C@H](Cc2nnc(-c3ccccc3)o2)C[C@H]1C(C)C | 624
O=C(c1cccs1)c1nonc1C(=O)c1cccs1 | 806
NC(=O)C1CCN(c2nc(-c3cccc(C(F)(F)F)c3)cs2)CC1 | 566
NC(=O)NCC(=O)N[C@H]1CC[C@H](Nc2nccc(-c3ccncc3)n2)C1 | < 1
CC(C)(C)c1ccc(-n2cnc3cc(C(=O)N4CCCCC4)ccc32)cc1 | 969
C[C@@]1(O)[C@H](O)[C@@H](CO)O[C@H]1n1ccc(N)nc1=O | 9.97
CCn1c(C(=O)NCCc2ccc(OC)cc2)cc2sccc21 | 721
CNC(=O)Cn1cc(-c2ccc3c(c2)C(F)CC32NC(=O)N(CC(=O)N(Cc3ccc(F)cc3)[C@@H](C)C(F)(F)F)C2=O)cn1 (stereo not given in full) | 115
COc1ccnc(NC(=S)N2CCN(c3cc(C(F)(F)F)cc(C(F)(F)F)c3)CC2)c1 | 373
N[C@@H](Cc1cc(Br)c(O)c(Br)c1)C(=O)O | 3.64
O=C1CCCC2=C1C(c1[nH]ncc1Cl)N=C(Nc1nc3cccc(Cl)c3o1)N2 (stereo not given) | > 1000
O=C(O)c1ccnc2cc(C(OCCN3CCCCC3)c3ccccc3Cl)[nH]c12 (stereo not given) | < 1
Cc1ccccc1CSc1nc2ncc(Br)cc2[nH]1 | 497
Cc1cc(-c2nnc3n2CCCCC3)c(C)n1-c1ccccc1 | 581
Cc1noc(C)c1-c1ccc2ncnc(N3CCC(C(=O)O)CC3)c2c1 | 1.5
CC[C@H]1CN2CCC3CC(OC)C(OC)CC3[C@@H]2C[C@@H]1C[C@H]1NCCC2=C1CC(OC)=C(O)C2 (stereo not given in full) | 153

— PubChem BioAssay AID1508612
